Reference: the supplement of paper PMC13207355
Counter-ions that a name gives are not always drawn.

Experiments:
Details in all cases: exposure time: 72 h
[1] = system: E31 (patient-derived glioblastoma stem cells of proneural subtype); experiment: phenotypic distance (Euclidean, principal components) from DMSO controls (arbitrary units); higher = stronger morphological change
[2] = system: E28 (patient-derived glioblastoma stem cells of classical subtype); experiment: as above
[3] = system: E57 (patient-derived glioblastoma stem cells of mesenchymal subtype); experiment: as above
[4] = system: E13 (patient-derived glioblastoma stem cells of classical subtype); experiment: as above
[5] = system: E21 (patient-derived glioblastoma stem cells of mesenchymal subtype); experiment: as above
[6] = system: E34 (patient-derived glioblastoma stem cells of proneural subtype); experiment: as above
[7] = system: FT3469 (normal neural stem cell line); experiment: as above
[8] = system: E31; experiment: surviving fraction (nuclei count normalised to DMSO); higher = more cells surviving (less toxic)
[9] = system: E28; experiment: as above
[10] = system: E57; experiment: as above
[11] = system: E13; experiment: as above
[12] = system: E21; experiment: as above
[13] = system: E34; experiment: as above
[14] = system: FT3469; experiment: as above
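For phenotypic distance (Euclidean, principal components) from DMSO controls in this document: cell Painting imaging in 384-well plates, CellProfiler features reduced to at least 20 principal components, Euclidean distance versus same-plate DMSO vehicle wells (0.1% v/v), median over six images per well.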
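For surviving fraction (nuclei count normalised to DMSO) in this document: nuclei counted by high-content imaging of Hoechst-stained cells in laminin-coated 384-well plates, relative to 0.1% DMSO vehicle wells, with staurosporine as cell-death control.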

C[C@@H](O)[C@H]1C(=O)N2C(C(=O)O)=C(S[C@@H]3CN[C@H](C(=O)N(C)C)C3)[C@H](C)[C@H]12 [Meropenem]
Details	phenotypic distance	surviving fraction
[1], 4.11523 nM	0.705	–
[1], 12.34567901 nM	0.703	–
[1], 37.037 nM	0.741	–
[1], 111.1111111 nM	0.746	–
[1], 333.333 nM	0.485	–
[1], 1000 nM	0.528	–
[1], 3000 nM	0.487	–
[2], 4.11523 nM	0.51	–
[2], 12.34567901 nM	0.969	–
[2], 37.037 nM	0.452	–
[2], 111.1111111 nM	0.706	–
[2], 333.333 nM	0.645	–
[2], 1000 nM	0.83	–
[2], 3000 nM	0.601	–
[3], 4.11523 nM	0.603	–
[3], 12.34567901 nM	0.59	–
[3], 37.037 nM	0.529	–
[3], 111.1111111 nM	0.751	–
[3], 333.333 nM	0.536	–
[3], 1000 nM	0.871	–
[3], 3000 nM	0.419	–
[4], 4.11523 nM	0.447	–
[4], 12.34567901 nM	0.391	–
[4], 37.037 nM	0.465	–
[4], 111.1111111 nM	0.343	–
[4], 333.333 nM	0.428	–
[4], 1000 nM	1.47	–
[4], 3000 nM	0.693	–
[5], 4.11523 nM	1.01	–
[5], 12.34567901 nM	1	–
[5], 37.037 nM	0.846	–
[5], 111.1111111 nM	3.57	–
[5], 333.333 nM	0.377	–
[5], 1000 nM	0.695	–
[5], 3000 nM	0.387	–
[6], 4.11523 nM	0.76	–
[6], 12.34567901 nM	0.538	–
[6], 37.037 nM	0.692	–
[6], 111.1111111 nM	0.922	–
[6], 333.333 nM	0.78	–
[6], 1000 nM	0.612	–
[6], 3000 nM	0.538	–
[7], 4.11523 nM	0.799	–
[7], 12.34567901 nM	1.17	–
[7], 37.037 nM	0.764	–
[7], 111.1111111 nM	1.09	–
[7], 333.333 nM	0.633	–
[7], 1000 nM	0.854	–
[7], 3000 nM	0.676	–
[8], 4.11523 nM	–	1.13
[8], 12.34567901 nM	–	1.1
[8], 37.037 nM	–	1.15
[8], 111.1111111 nM	–	0.926
[8], 333.333 nM	–	1.17
[8], 1000 nM	–	1.01
[8], 3000 nM	–	1.16
[9], 4.11523 nM	–	1.11
[9], 12.34567901 nM	–	1.17
[9], 37.037 nM	–	1.12
[9], 111.1111111 nM	–	1.08
[9], 333.333 nM	–	1.29
[9], 1000 nM	–	1.23
[9], 3000 nM	–	1.03
[10], 4.11523 nM	–	1
[10], 12.34567901 nM	–	1.01
[10], 37.037 nM	–	1.01
[10], 111.1111111 nM	–	1.03
[10], 333.333 nM	–	1.01
[10], 1000 nM	–	1.06
[10], 3000 nM	–	0.989
[11], 4.11523 nM	–	0.996
[11], 12.34567901 nM	–	1.11
[11], 37.037 nM	–	0.951
[11], 111.1111111 nM	–	1.09
[11], 333.333 nM	–	1.05
[11], 1000 nM	–	1.31
[11], 3000 nM	–	1.17
[12], 4.11523 nM	–	1.15
[12], 12.34567901 nM	–	1.14
[12], 37.037 nM	–	1.07
[12], 111.1111111 nM	–	1.11
[12], 333.333 nM	–	1.02
[12], 1000 nM	–	1.16
[12], 3000 nM	–	1.06
[13], 4.11523 nM	–	1.07
[13], 12.34567901 nM	–	1.03
[13], 37.037 nM	–	1.11
[13], 111.1111111 nM	–	1.17
[13], 333.333 nM	–	1.07
[13], 1000 nM	–	0.937
[13], 3000 nM	–	1.02
[14], 4.11523 nM	–	1.24
[14], 12.34567901 nM	–	1.17
[14], 37.037 nM	–	1.17
[14], 111.1111111 nM	–	1.1
[14], 333.333 nM	–	1.28
[14], 1000 nM	–	0.993
[14], 3000 nM	–	0.866

CC(C)NCC(O)c1cc(O)cc(O)c1 (stereo not given) [Metaproterenol sulfate, orciprenaline sulfate]
Details	phenotypic distance	surviving fraction
[1], 4.1 nM	0.663	–
[1], 12.3 nM	0.455	–
[1], 37 nM	0.562	–
[1], 111.1 nM	0.625	–
[1], 333.3 nM	0.672	–
[1], 1000 nM	0.447	–
[1], 3000 nM	0.615	–
[2], 4.1 nM	0.775	–
[2], 12.3 nM	0.464	–
[2], 37 nM	0.677	–
[2], 111.1 nM	0.689	–
[2], 333.3 nM	1.06	–
[2], 1000 nM	0.558	–
[2], 3000 nM	0.934	–
[3], 4.1 nM	0.966	–
[3], 12.3 nM	0.872	–
[3], 37 nM	0.874	–
[3], 111.1 nM	0.737	–
[3], 333.3 nM	1	–
[3], 1000 nM	0.774	–
[3], 3000 nM	0.716	–
[4], 4.1 nM	0.452	–
[4], 12.3 nM	0.546	–
[4], 37 nM	0.581	–
[4], 111.1 nM	0.458	–
[4], 333.3 nM	0.743	–
[4], 1000 nM	0.439	–
[4], 3000 nM	0.72	–
[5], 4.1 nM	0.506	–
[5], 12.3 nM	0.541	–
[5], 37 nM	0.821	–
[5], 111.1 nM	2.96	–
[5], 333.3 nM	0.869	–
[5], 1000 nM	0.684	–
[5], 3000 nM	0.751	–
[6], 4.1 nM	0.654	–
[6], 12.3 nM	0.671	–
[6], 37 nM	0.473	–
[6], 111.1 nM	0.805	–
[6], 333.3 nM	0.747	–
[6], 1000 nM	0.882	–
[6], 3000 nM	0.769	–
[7], 4.1 nM	1.07	–
[7], 12.3 nM	1.13	–
[7], 37 nM	0.697	–
[7], 111.1 nM	0.559	–
[7], 333.3 nM	0.916	–
[7], 1000 nM	1.01	–
[7], 3000 nM	1.08	–
[8], 4.1 nM	–	0.982
[8], 12.3 nM	–	1.02
[8], 37 nM	–	0.984
[8], 111.1 nM	–	1.14
[8], 333.3 nM	–	1.02
[8], 1000 nM	–	1.13
[8], 3000 nM	–	1.03
[9], 4.1 nM	–	1.2
[9], 12.3 nM	–	1.1
[9], 37 nM	–	1.06
[9], 111.1 nM	–	1.14
[9], 333.3 nM	–	1.21
[9], 1000 nM	–	1.04
[9], 3000 nM	–	1.13
[10], 4.1 nM	–	1.18
[10], 12.3 nM	–	1.11
[10], 37 nM	–	1.14
[10], 111.1 nM	–	0.953
[10], 333.3 nM	–	1.07
[10], 1000 nM	–	1.18
[10], 3000 nM	–	1.02
[11], 4.1 nM	–	0.979
[11], 12.3 nM	–	0.957
[11], 37 nM	–	1.06
[11], 111.1 nM	–	0.933
[11], 333.3 nM	–	1.06
[11], 1000 nM	–	0.995
[11], 3000 nM	–	1.06
[12], 4.1 nM	–	1
[12], 12.3 nM	–	0.995
[12], 37 nM	–	1.01
[12], 111.1 nM	–	1.05
[12], 333.3 nM	–	1.13
[12], 1000 nM	–	1.02
[12], 3000 nM	–	1.07
[13], 4.1 nM	–	0.922
[13], 12.3 nM	–	1.02
[13], 37 nM	–	1.04
[13], 111.1 nM	–	0.924
[13], 333.3 nM	–	1.02
[13], 1000 nM	–	1.24
[13], 3000 nM	–	0.961
[14], 4.1 nM	–	1.18
[14], 12.3 nM	–	1.32
[14], 37 nM	–	1.05
[14], 111.1 nM	–	1.14
[14], 333.3 nM	–	1.13
[14], 1000 nM	–	1.04
[14], 3000 nM	–	1.22

Cc1cc(C(C)(C)CC(C)(C)C)ccc1OCCOCC[N+](C)(C)Cc1ccccc1 [Methyl benzethonium chloride]
Details	phenotypic distance	surviving fraction
[1], 4.1 nM	0.64	–
[1], 37 nM	1.09	–
[1], 111.1 nM	0.959	–
[1], 333.3 nM	1.67	–
[1], 1000 nM	1.56	–
[1], 3000 nM	10.6	–
[2], 4.1 nM	0.909	–
[2], 37 nM	0.85	–
[2], 111.1 nM	0.845	–
[2], 333.3 nM	1.63	–
[2], 1000 nM	1.45	–
[2], 3000 nM	5.99	–
[3], 4.1 nM	0.767	–
[3], 37 nM	0.775	–
[3], 111.1 nM	0.964	–
[3], 333.3 nM	1.11	–
[3], 1000 nM	1.42	–
[3], 3000 nM	5.11	–
[4], 4.1 nM	0.567	–
[4], 37 nM	0.631	–
[4], 111.1 nM	0.7	–
[4], 333.3 nM	1.46	–
[4], 1000 nM	2.26	–
[4], 3000 nM	7.09	–
[5], 4.1 nM	0.505	–
[5], 37 nM	0.8	–
[5], 111.1 nM	1.42	–
[5], 333.3 nM	1.89	–
[5], 1000 nM	1.88	–
[5], 3000 nM	7.45	–
[6], 4.1 nM	0.669	–
[6], 37 nM	1.03	–
[6], 111.1 nM	3.75	–
[6], 333.3 nM	1.62	–
[6], 1000 nM	1.37	–
[6], 3000 nM	2.97	–
[7], 4.1 nM	0.966	–
[7], 37 nM	0.81	–
[7], 111.1 nM	1.14	–
[7], 333.3 nM	1.12	–
[7], 1000 nM	0.916	–
[7], 3000 nM	5.6	–
[8], 4.1 nM	–	1.14
[8], 37 nM	–	1.3
[8], 111.1 nM	–	0.971
[8], 333.3 nM	–	1.04
[8], 1000 nM	–	0.959
[8], 3000 nM	–	0.0251
[9], 4.1 nM	–	1.18
[9], 37 nM	–	1.12
[9], 111.1 nM	–	1.01
[9], 333.3 nM	–	1.03
[9], 1000 nM	–	0.915
[9], 3000 nM	–	0.122
[10], 4.1 nM	–	1.1
[10], 37 nM	–	1.08
[10], 111.1 nM	–	0.952
[10], 333.3 nM	–	1.08
[10], 1000 nM	–	0.992
[10], 3000 nM	–	0.232
[11], 4.1 nM	–	1.06
[11], 37 nM	–	0.985
[11], 111.1 nM	–	1
[11], 333.3 nM	–	0.905
[11], 1000 nM	–	0.77
[11], 3000 nM	–	0.0607
[12], 4.1 nM	–	1.05
[12], 37 nM	–	1.08
[12], 111.1 nM	–	1.13
[12], 333.3 nM	–	1.09
[12], 1000 nM	–	1.11
[12], 3000 nM	–	0.0579
[13], 4.1 nM	–	1.05
[13], 37 nM	–	1.16
[13], 111.1 nM	–	1.28
[13], 333.3 nM	–	1.15
[13], 1000 nM	–	0.97
[13], 3000 nM	–	0.507
[14], 4.1 nM	–	1.08
[14], 37 nM	–	1.23
[14], 111.1 nM	–	1.28
[14], 333.3 nM	–	0.993
[14], 1000 nM	–	0.937
[14], 3000 nM	–	0.135
